Like-named read-outs stand apart in the source and are kept apart here.
Biological target: T1, F508delCFTR (Homo sapiens, UniProt P13569, DEL508-508)
T1 construct: expressed in transfected cells; host or cells: CFBE4lo-F508delCFTR-HRP cells (human lung derived epithelial cell line, doxycycline-inducible)
Experiment: Cell Surface Expression-Horse Radish Peroxidase (CSE-HRP) Assay
Format: cell-based
Details: for EC50: CFBE4lo-F508delCFTR-HRP cells, 18-24 hours at 33° C.; for Emax / Maximum % activity (with co-corrector): maximum at any tested concentration (up to 20 μM), normalized to on-plate positive control (2 μM co-corrector); for Maximum % activity (with co-corrector): with co-corrector 2 μM
Method in brief: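 Surface F508delCFTR measured via exofacial-loop HRP luminescence (luminol) in doxycycline-induced (0.5 μg/mL, 72 h) CFBE4lo− cells. Compounds, 20 μM top, 3-fold, 8 concentrations, ±2 μM co-corrector, incubated 18-24 h at 33° C; EC50 by variable-slope sigmoidal fit of % activity relative to positive control, three replicate plates.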

[1] = test compound without co-corrector, HRP luminescence readout, read-out: EC50 (without co-corrector)
[2] = test compound without co-corrector
[3] = with co-corrector 2 μM 3-[(2R,4R)-4-({[1-(2,2-difluoro-1,3-benzodioxol-5-yl)cyclopropyl]carbonyl}amino)-7-methoxy-3,4-dihydro-2H-chromen-2-yl]benzoic acid, read-out: EC50 (with co-corrector)

T1 sequence (P13569 with tags, fused parts or gaps DEL508-508): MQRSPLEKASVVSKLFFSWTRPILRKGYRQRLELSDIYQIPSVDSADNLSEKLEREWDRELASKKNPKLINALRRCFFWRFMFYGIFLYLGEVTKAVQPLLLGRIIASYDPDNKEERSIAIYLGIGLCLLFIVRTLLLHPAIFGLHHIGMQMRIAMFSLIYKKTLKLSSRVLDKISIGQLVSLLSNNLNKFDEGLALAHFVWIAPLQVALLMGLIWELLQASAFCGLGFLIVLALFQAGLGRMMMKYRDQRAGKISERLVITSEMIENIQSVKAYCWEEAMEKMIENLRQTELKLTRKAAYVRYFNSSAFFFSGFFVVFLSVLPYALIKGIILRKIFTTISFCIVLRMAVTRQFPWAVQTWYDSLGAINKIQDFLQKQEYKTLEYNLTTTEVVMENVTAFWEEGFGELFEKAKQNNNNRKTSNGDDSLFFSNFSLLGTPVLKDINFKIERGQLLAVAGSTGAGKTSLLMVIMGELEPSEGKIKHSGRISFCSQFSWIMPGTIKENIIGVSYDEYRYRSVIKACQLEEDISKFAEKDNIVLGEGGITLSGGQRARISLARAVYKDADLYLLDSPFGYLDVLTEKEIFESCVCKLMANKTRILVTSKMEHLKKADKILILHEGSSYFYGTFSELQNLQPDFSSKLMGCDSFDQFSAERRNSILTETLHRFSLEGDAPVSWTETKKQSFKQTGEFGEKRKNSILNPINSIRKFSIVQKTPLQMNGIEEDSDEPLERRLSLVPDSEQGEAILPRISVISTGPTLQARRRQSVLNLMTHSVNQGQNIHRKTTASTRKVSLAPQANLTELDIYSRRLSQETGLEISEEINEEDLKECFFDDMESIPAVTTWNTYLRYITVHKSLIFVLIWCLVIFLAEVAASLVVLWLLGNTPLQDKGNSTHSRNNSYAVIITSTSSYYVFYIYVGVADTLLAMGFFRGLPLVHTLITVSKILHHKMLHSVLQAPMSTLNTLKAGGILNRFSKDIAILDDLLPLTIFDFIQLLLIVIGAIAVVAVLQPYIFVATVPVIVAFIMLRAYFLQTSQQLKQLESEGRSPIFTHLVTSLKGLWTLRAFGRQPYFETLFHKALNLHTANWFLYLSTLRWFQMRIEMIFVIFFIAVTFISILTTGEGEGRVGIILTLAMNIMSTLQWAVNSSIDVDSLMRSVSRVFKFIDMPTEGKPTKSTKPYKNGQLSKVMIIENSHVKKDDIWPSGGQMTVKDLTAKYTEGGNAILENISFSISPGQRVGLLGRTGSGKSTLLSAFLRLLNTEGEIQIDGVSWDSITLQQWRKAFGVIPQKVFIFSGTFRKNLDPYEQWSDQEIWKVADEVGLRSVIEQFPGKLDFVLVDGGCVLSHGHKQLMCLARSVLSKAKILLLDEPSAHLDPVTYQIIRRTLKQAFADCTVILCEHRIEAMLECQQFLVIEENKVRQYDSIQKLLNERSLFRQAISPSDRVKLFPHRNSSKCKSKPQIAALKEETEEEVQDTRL

SMILES: Cc1ccc2c(c1)C(C(=O)NS(=O)(=O)c1cccc3ccccc13)(c1ccccc1)CCO2 (stereo not drawn) [Example 18, 6-methyl-N-(naphthalene-1-sulfonyl)-4-phenyl-3,4-dihydro-2H-1-benzopyran-4-carboxamide]
- EC50 [1]: 3 to 10 µM
- Emax [2]: 50 to 150%
- EC50 [3]: < 3 µM
- Maximum % activity (with co-corrector): +++ (≥350)

SMILES: CCCS(=O)(=O)NC(=O)C1COc2ccc(Cl)cc21 (stereo not drawn) [Example 28, 5-chloro-N-(propane-1-sulfonyl)-2,3-dihydro-1-benzofuran-3-carboxamide]
- EC50 [1]: ≥ 10 µM
- Emax [2]: < 50%
- EC50 [3]: ≥ 10 µM
- Maximum % activity (with co-corrector): + (<150)

SMILES: COc1ccc(Br)c2c1[C@H](C(=O)NS(=O)(=O)c1cccc3ccccc13)CCO2 [Example 36, (4R)-8-bromo-5-methoxy-N-(naphthalene-1-sulfonyl)-3,4-dihydro-2H-1-benzopyran-4-carboxamide]
- EC50 [1]: < 3 µM
- Emax [2]: ≥ 150%
- EC50 [3]: < 3 µM
- Maximum % activity (with co-corrector): +++ (≥350)
